Like-named read-outs stand apart in the source and are kept apart here.
Assays:
Assay in all cases: stopped-flow CO2 hydrase assay
Type in all cases: biochemical
hCA II = target: T1, hCA II (Homo sapiens, UniProt P00918)
T1 construct: gene CA2; recombinant, obtained in-house; cytosolic isoform
Source text: stopped-flow CO2 hydrase assay on hCA II

hCA XII = target: T2, hCA XII (Homo sapiens, UniProt O43570)
T2 construct: gene CA12; recombinant, obtained in-house
Source text: stopped-flow CO2 hydrase assay on hCA XII

hCA IX = target: T3, hCA IX (Homo sapiens, UniProt Q16790)
T3 construct: gene CA9; recombinant, obtained in-house
Source text: stopped-flow CO2 hydrase assay on hCA IX

hCA I = target: T4, hCA I (Homo sapiens, UniProt P00915)
T4 construct: gene CA1; recombinant, obtained in-house; cytosolic isoform
Source text: stopped-flow CO2 hydrase assay on hCA I

T2 sequence (O43570 25-354): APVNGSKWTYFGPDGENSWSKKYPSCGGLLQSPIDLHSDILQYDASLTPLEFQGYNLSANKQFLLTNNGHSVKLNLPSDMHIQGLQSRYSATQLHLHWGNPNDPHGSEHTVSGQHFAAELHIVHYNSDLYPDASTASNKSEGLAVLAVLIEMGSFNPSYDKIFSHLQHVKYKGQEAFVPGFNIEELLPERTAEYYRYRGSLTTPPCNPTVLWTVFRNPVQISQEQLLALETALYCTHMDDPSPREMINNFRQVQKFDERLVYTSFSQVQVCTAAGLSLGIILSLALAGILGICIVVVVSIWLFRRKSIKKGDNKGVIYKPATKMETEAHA
T4 sequence (P00915 2-261): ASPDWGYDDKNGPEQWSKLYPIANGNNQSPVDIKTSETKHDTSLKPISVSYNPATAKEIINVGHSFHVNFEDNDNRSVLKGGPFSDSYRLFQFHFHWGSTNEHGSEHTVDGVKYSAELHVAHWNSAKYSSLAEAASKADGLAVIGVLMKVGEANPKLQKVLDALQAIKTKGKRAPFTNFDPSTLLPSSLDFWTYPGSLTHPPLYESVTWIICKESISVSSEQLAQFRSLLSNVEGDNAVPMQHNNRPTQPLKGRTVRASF

Row | Ki (hCA II) [µM] | Ki (hCA XII) [µM] | Ki (hCA IX; read-out: hCA IX) [µM] | Ki (hCA I) [µM] | Ki (hCA IX; read-out: hCA I) [µM] | Compound
1 | > 100 | 0.66 | 3.1 | > 100 |  | O=C(O)CN1C(=O)SC(=Cc2ccc(Cl)cc2)C1=O [3c, 2-(5-(4-chlorobenzylidene)-2,4-dioxothiazolidin-3-yl)acetic acid]
2 | > 100 | 0.91 | 33.3 | > 100 |  | O=C(O)CN1C(=O)SC(=Cc2ccc(Br)cc2)C1=O [3e, 2-(5-(4-bromobenzylidene)-2,4-dioxothiazolidin-3-yl)acetic acid]
3 | > 100 | 0.58 | 22.2 | > 100 |  | O=C(O)CN1C(=O)SC(=Cc2ccccc2)C1=O [3a, 2-(5-benzylidene-2,4-dioxothiazolidin-3-yl)acetic acid]
4 | > 100 | 0.85 | 3.2 | > 100 |  | COc1ccc(C=C2SC(=O)N(CC(=O)O)C2=O)cc1 [3f, 2-(5-(4-methoxybenzylidene)-2,4-dioxothiazolidin-3-yl) acetic acid]
5 | > 100 | 0.47 | 24.1 | > 100 |  | O=C(O)CN1C(=O)SC(=Cc2ccccc2Cl)C1=O [3d, 2-(5-(2-chlorobenzylidene)-2,4-dioxothiazolidin-3-yl)acetic acid]
6 | > 100 | 0.93 |  | > 100 | > 100 | Cc1ccc(C=C2SC(=O)N(CC(=O)O)C2=O)cc1 [3b]
7 | > 100 | 0.3 |  | > 100 | > 100 | COc1cccc(C=C2SC(=O)N(CC(=O)O)C2=O)c1 [3g, 2-(5-(3-methoxybenzylidene)-2,4-dioxothiazolidin-3-yl) acetic acid]

From publication PMC7006686, “A class of carbonic anhydrase IX/XII – selective carboxylate inhibitors” (Journal of Enzyme Inhibition and Medicinal Chemistry, 2020)
